We go through seven molecules from publication PMC7016908 (ACS Omega, 2020).

Each structure is given as a SMILES string. Several values for one entry are separate records, joined by “and”; a condition that tells them apart may be missing. Identical values can stand only once. Entries after “also recorded” stand apart in the source; their conditions may differ.

For data set [1], the target named is T1, human 5-HT2C receptor (Homo sapiens, UniProt P28335).
T1 sequence (P28335 33-458): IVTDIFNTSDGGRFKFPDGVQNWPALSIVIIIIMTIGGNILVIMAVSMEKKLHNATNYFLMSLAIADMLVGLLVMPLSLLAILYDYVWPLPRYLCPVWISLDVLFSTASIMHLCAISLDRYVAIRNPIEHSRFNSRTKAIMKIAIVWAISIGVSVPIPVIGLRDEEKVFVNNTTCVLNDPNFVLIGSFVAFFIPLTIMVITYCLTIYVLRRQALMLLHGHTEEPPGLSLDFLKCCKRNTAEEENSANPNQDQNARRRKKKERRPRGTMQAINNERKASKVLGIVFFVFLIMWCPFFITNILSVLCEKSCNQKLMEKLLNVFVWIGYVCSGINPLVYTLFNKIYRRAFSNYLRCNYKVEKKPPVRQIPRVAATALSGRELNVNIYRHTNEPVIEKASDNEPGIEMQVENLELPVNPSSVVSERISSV
Description: Radioligand displacement binding, [3H]mesulergine, HeLa-5-HT2C cell membranes. The note with it: for selectivity for the 5-HT2C receptor: 5-HT2C over 5-HT2A; for Ki: [3H]mesulergine displacement, mean ± range of two independent assays; for 5-HT2A/2C: ratio of Ki 5-HT2A / Ki 5-HT2C. A general note: In a radioligand displacement assay an active substance lowers the binding of a labelled ligand.

Data set [2] has as its target T2, human 5-HT2A receptor (Homo sapiens, UniProt P28223). Description: biochemical. It is filed as binding. The note with it: for displacement of [3H]ketanserin from the human 5-HT2A receptor: at 10 μM concentration.
Data set [3] addresses T1, human 5-HT2C receptor. Description: Functional Ca2+ mobilization fluorescence assay in HeLa-5-HT2C cells. In kind it is cell-based. The note with it: for agonist character at 5-HT2C receptor: functional assay, in words; for Emax at 100 µM: read-out: % Emax 5-HT2C. In general terms: Calcium assays in cells follow changes in intracellular calcium, usually with a dye or a luminescent sensor.

Data set [4] addresses T2, human 5-HT2A receptor. As to the kind of experiment: Functional Ca2+ mobilization fluorescence assay in CHO-5-HT2A cells. It is filed as cell-based. The note with it: for Emax at 100 µM: read-out: % Emax 5-HT2A, % maximum response (5-HT) at 100 μM; for agonist character at 5-HT2A receptor: in words.
For data set [5] the following is noted: hydrochlorides; ref [12],[13]; cited from earlier work.
Data set [6] relates to 5-HT2A receptor. The note with it: ref Trachsel et al., 2009 [23]; cited from earlier work.
For data set [7], the target named is 5-HT2A receptor. The note with it: ref Trachsel et al., 2009 [23]; cited from earlier work. This is another data set of the same source.
The next data set has as its system LSD-trained rats. The note with it: ref [6],[7]; cited from earlier work.

T2 sequence (P28223 whole entry): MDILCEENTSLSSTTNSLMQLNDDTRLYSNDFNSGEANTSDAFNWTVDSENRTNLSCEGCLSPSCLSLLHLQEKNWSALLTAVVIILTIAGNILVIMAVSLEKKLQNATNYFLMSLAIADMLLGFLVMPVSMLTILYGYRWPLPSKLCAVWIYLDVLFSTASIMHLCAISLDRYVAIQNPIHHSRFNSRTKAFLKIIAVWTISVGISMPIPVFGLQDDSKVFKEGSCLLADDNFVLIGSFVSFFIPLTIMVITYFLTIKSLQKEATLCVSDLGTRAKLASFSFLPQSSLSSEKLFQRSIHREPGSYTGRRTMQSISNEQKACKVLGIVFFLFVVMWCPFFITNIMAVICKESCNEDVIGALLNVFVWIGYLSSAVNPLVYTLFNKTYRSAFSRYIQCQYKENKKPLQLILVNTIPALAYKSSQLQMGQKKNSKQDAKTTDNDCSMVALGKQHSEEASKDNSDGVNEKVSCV

The term Ki denotes a dissociation constant, usually derived from enzyme kinetics or from competition with a known ligand. A low value points to a stronger hold on the target. By EC50 is commonly meant the concentration at which the effect is half-maximal. Usually Emax stands for the maximal effect, on the per cent scale that the assay sets. As for `Cl.NCCc1cccc2c1oc1ccccc12` [Compound 4, 2-(Dibenzo[b,d]furan-4-yl)ethanamine Hydrochloride], at human 5-HT2C receptor [1], the “Ki at the human 5-HT2C receptor (in words)” value was “submicromolar”, the “selectivity for the 5-HT2C receptor” value is more than 70 fold and the 5-HT2A/2C was more than 71. Moreover, the affinity at human 5-HT2C receptor [1] (Ki 5-HT2C) corresponds to a Ki of 140 nM. This molecule also gave a Ki at human 5-HT2C receptor [1] (pKi 5-HT2C) of 145 nM. Besides, at human 5-HT2A receptor [2], the inhibition constant Ki was more than 10000 nM and the “displacement of [3H]ketanserin from the human 5-HT2A receptor” value (from here on “displacement of [3H]ketanserin”) was less than 50%. At human 5-HT2C receptor [3], a half-maximal response (EC50) required 1380 ± 190 nM, the “agonist character at 5-HT2C receptor” value is recorded as “moderately potent full agonist activity; also recorded: full agonists” and the Emax at 100 µM is 98%. Besides, the EC50 on human 5-HT2A receptor [4] worked out at 3330 ± 830 nM. The “% Emax 5-HT2A” value on human 5-HT2A receptor [4] (% maximum response (5-HT) at 100 μM) stood at 88.21 ± 2.79%. The concentration for a half-maximal effect (EC50) at 5-HT2A receptor (in words) on human 5-HT2A receptor [4] (functional assay) is “low micromolar”.
In the case of `Cl.NCCc1ccc2oc3ccccc3c2c1` [Compound 1, 2-(Dibenzo[b,d]furan-2-yl)ethanamine Hydrochloride], at human 5-HT2C receptor [1], the inhibition constant Ki at the human 5-HT2C receptor (in words) is “submicromolar” and the 5-HT2A/2C is > > 14. For the same molecule, the Ki at human 5-HT2C receptor [1] (Ki 5-HT2C) is 737 nM. In addition, the “toxicity (in words)” value in data set [5] was “toxic”. For the same molecule, on human 5-HT2A receptor [2], the Ki was more than 10000 nM and the “displacement of [3H]ketanserin” value is less than 50%. On human 5-HT2C receptor [3], the “agonist character at 5-HT2C receptor” value was “extremely weak partial agonists” and the Emax at 100 µM is 49.1%. Further, on human 5-HT2A receptor [4], the EC50 is 22600 nM and the Emax at 100 µM was 66.1%.
Consider `CC(N)Cc1ccc2oc3ccccc3c2c1.Cl` (centres unmarked) [Compound 2, 1-(Dibenzo[b,d]furan-2-yl)propan-2-amine Hydrochloride], for which, at human 5-HT2C receptor [1], the “Ki at the human 5-HT2C receptor (in words)” value is “submicromolar” and the 5-HT2A/2C is > > 21. The same molecule showed an inhibition constant Ki on human 5-HT2C receptor [1] (Ki 5-HT2C) of 474 nM. Besides, at human 5-HT2A receptor [2], the Ki was more than 10000 nM and the “displacement of [3H]ketanserin” value is reported as less than 50%. At human 5-HT2C receptor [3], the EC50 was determined as 3520 ± 740 nM, the “agonist character at 5-HT2C receptor” value was “moderately potent full agonist activity” and the Emax at 100 µM is 112%. Also, the Emax at 100 µM at human 5-HT2A receptor [4] turned out to be 64%.
As a reminder, the pKi is −log10 of the Ki, conventionally taken in molar units. As to `COc1cc(-c2ccccc2)c(OC)cc1CCN` [2C-phenyl, 2-(2,5-dimethoxy-4-phenylphenyl)ethanamine], in the data set on 5-HT2A receptor [6], the “functional character at 5-HT2A receptor” value is recorded as “antagonist”. Moreover, on 5-HT2A receptor [7], the “pKi at the 5-HT2A receptor” value is on record as 6.11.
With `COc1ccc2oc3ccccc3c2c1CCN.Cl` [Compound 5, 2-(2-Methoxydibenzo[b,d]furan-1-yl)ethanamine Hydrochloride], on human 5-HT2C receptor [1], the “selectivity for the 5-HT2C receptor” value is given as more than 70 fold and the 5-HT2A/2C is recorded as 72. In addition, the Ki on human 5-HT2C receptor [1] (Ki 5-HT2C) was 35 nM and 35.3 nM. On human 5-HT2A receptor [2], the Ki turned out to be 2550 nM and the “Ki at the h5-HT2A receptor (in words)” value is given as “low micromolar”. For the same molecule, on human 5-HT2C receptor [3], the EC50 came to 222 ± 41 nM, the “agonist character at 5-HT2C receptor” value was “full agonists” and the Emax at 100 µM was 106%. Besides, at human 5-HT2A receptor [4], it took 14500 nM to reach a half-maximal effect (EC50) and the Emax at 100 µM is 59%. Moreover, at human 5-HT2A receptor [4] (functional assay), the “agonist character at 5-HT2A receptor” value is reported as “partial agonist”. In addition, on human 5-HT2A receptor [4] (functional potency 5-HT2A vs 5-HT2C), the “times weaker as agonist at 5-HT2A than at 5-HT2C” value is 70 times.
Take `COc1cc2c(cc1CCN)oc1ccccc12.Cl` [Compound 3, 2-(2-Methoxydibenzo[b,d]furan-3-yl)ethanamine Hydrochloride]: at human 5-HT2C receptor [1], the inhibitory constant (Ki) at the human 5-HT2C receptor (in words) is “submicromolar” and the 5-HT2A/2C is given as more than 49. The molecule further had an inhibition constant (Ki) on human 5-HT2C receptor [1] (Ki 5-HT2C) of 204 nM. The “toxicity (in words)” value in data set [5] was “toxic”. In addition, on human 5-HT2A receptor [2], the Ki is more than 10000 nM and the “displacement of [3H]ketanserin” value is reported as less than 50%. Also, on human 5-HT2C receptor [3], it took 53200 nM to reach a half-maximal effect (EC50), the “agonist character at 5-HT2C receptor” value was “extremely weak partial agonists” and the Emax at 100 µM is 54%. On human 5-HT2A receptor [4], the EC50 was determined as 32400 nM and the Emax at 100 µM was 58.2%. Also, the “agonist character at 5-HT2A receptor” value on human 5-HT2A receptor [4] (functional assay) was “very weak partial agonist”.
Take `NCCc1c2c(cc3c1OCC3)OCC2` [2C-H-Fly]: the drug discrimination response result in the data set on LSD-trained rats is reported as “positive drug discrimination response”.
